Like-named read-outs stand apart in the source and are kept apart here.
System: D614G S protein pseudovirus (nCoV-S-Luc-D614G) in ACE2-293T cells
Assay type: cell-based, SARS-CoV-2

## COc1cc2c3cc1Oc1c4c(cc5c1[C@H](Cc1ccc(cc1)Oc1cc(ccc1O)C[C@H]3N(C)CC2)N(C)CC5)OCO4 [Cepharanoline]
Conc. 0.1 μM
  Levels of viral infection, D614G, Ave.: 72.97%
Conc. 1 μM
  Levels of viral infection, D614G, Ave.: 39.14%
Conc. 10 μM
  Levels of viral infection, D614G, Ave.: −20.02%
read-out: 50% inhibitory concentrations (IC50) for viral infection, D614G
  IC50: 480 ± 90 nM
